Laboratory results reported in ChEMBL document CHEMBL1127803 (J Med Chem, 1994).
Where a SMILES comes first, the peptide text is derived from it. [ ]: non-standard residue; d: D form. The star is where a group is joined. Tyr(Nα,Nα-allyl2) = C=CCN(CC=C)[C@@H](Cc1ccc(O)cc1)C(=O)*; Aib = CC(C)(N)C(=O)O

How the values were obtained:
[1] = molecular target: T1, Delta-type opioid receptor (Mus musculus, UniProt P32300); experiment: Tested for inhibition of binding of [3H]DADLE to mouse brain membranes depleted of mu binding sites by pretreatment with irreversible ligand BIT for delta opioid receptor; parameters: species or system Membrane
Mu-type opioid receptor [2] = molecular target: Mu-type opioid receptor (Rattus norvegicus, UniProt P33535); experiment: Evaluated for inhibition of [3H]DAMGO binding from mu receptor in rat brain membranes; assay type: cell membranes
Mu-type opioid receptor [3] = molecular target: Mu-type opioid receptor (Cavia porcellus, UniProt P97266); experiment: Tested for agonist activity against mu opioid receptor in guinea pig ileum; assay type: functional, tissue-based
[4] = molecular target: T1, Delta-type opioid receptor; experiment: Tested for agonist activity against delta opioid receptor mouse vas deferens; assay type: functional, tissue-based

Sequence of Mu-type opioid receptor (Rattus norvegicus, UniProt P33535) (P33535 whole entry): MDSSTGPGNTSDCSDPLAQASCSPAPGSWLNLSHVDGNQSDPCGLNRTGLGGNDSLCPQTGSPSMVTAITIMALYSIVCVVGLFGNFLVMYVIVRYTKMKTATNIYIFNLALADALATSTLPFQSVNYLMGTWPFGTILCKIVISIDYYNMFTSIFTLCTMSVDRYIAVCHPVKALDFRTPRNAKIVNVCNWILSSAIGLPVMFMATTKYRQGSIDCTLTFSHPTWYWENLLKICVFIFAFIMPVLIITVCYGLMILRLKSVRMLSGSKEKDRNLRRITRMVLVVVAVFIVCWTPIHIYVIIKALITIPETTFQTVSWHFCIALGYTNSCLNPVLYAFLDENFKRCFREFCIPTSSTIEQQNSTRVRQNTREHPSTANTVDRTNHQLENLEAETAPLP
T1 sequence (P32300 whole entry): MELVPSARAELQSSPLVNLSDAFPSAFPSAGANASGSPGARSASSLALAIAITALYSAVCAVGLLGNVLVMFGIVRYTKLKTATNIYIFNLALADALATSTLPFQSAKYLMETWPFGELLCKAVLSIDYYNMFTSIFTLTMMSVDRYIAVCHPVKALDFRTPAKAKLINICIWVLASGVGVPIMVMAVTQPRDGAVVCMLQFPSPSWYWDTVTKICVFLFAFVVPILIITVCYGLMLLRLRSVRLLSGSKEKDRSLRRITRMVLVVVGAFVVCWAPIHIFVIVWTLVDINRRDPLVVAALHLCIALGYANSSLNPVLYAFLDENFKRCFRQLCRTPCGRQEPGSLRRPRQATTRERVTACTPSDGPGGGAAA
Sequence of Mu-type opioid receptor (Cavia porcellus, UniProt P97266) (P97266 whole entry): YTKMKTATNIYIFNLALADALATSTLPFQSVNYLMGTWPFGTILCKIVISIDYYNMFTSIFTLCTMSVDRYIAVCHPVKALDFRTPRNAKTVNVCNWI

SMILES	IC50 [1] [µM]	IC50 (Mu-type opioid receptor [2]) [µM]	IC50 (Mu-type opioid receptor [3]) [µM]	other results
C=CCN1C[C@@H](C)N([C@H](c2ccc(C(=O)N(CC)CC)cc2)c2cccc(O)c2)C[C@@H]1C	0.00958			
C=CCN1C[C@H](C)N([C@H](c2ccc(C(=O)N(CC)CC)cc2)c2cccc(OC)c2)C[C@H]1C [SNC-80]		5.71		
C=CCN1C[C@H](C)N(C(c2ccc(C(=O)N(CC)CC)cc2)c2cccc(O)c2)C[C@H]1C (single isomer, unassigned; (+)-1)	0.00031			
C=CCN1CC(C)N(C(c2ccc(C(=O)N(CC)CC)cc2)c2cccc(O)c2)CC1C (racemic)	0.00092		0.143	IC50 [4]: 0.0002 µM
C=CCN(CC=C)[C@@H](Cc1ccc(O)cc1)C(=O)NC(C)(C)C(=O)NC(C)(C)C(=O)N[C@@H](Cc1ccccc1)C(=O)N[C@@H](CC(C)C)C(=O)O.C=CCN1C[C@H](C)N([C@@H](c2ccc(C(=O)N(CC)CC)cc2)c2cccc(OC)c2)C[C@H]1C ({Tyr(Nα,Nα-allyl2)}-[Aib][Aib]FL-OH)				IC50 [4]: 3.25 µM
C=CCN1C[C@@H](C)N([C@@H](c2ccc(C(=O)N(CC)CC)cc2)c2cccc(O)c2)C[C@@H]1C	0.00049			
C=CCN1C[C@H](C)N([C@@H](c2ccc(C(=O)N(CC)CC)cc2)c2cccc(OC)c2)C[C@H]1C		2.47	5.46	
CC(C)[C@H](NC(=O)[C@H](CCC(=O)O)NC(=O)[C@H](Cc1ccccc1)NC(=O)[C@@H](C)NC(=O)[C@@H](N)Cc1ccc(O)cc1)C(=O)N[C@H](C(=O)NCC(=O)O)C(C)C [DELTORPHIN]			15	
C=CCN1C[C@H](C)N(C(c2ccc(C(=O)N(CC)CC)cc2)c2cccc(O)c2)C[C@H]1C (single isomer, unassigned; (+)-10)	0.00596			
C=CCN1CC(C)N([C@H](c2ccc(C(=O)N(CC)CC)cc2)c2cccc(OC)c2)CC1C (single isomer, unassigned) [SNC-80]		9.37		
C=CCN1C[C@@H](C)N(C(c2ccc(C(=O)N(CC)CC)cc2)c2cccc(OC)c2)C[C@@H]1C (single isomer, unassigned)		9.14	1.52	
